Key:
KCC2-S940A = target: T1, KCC2-S940A (Homo sapiens, UniProt Q9H2X9, S963A); assay: Tl+ flux assay, HEK-293 cells expressing KCC2-S940A; assay type: cell-based
T1 construct: expressed in transfected cells; host or cells: HEK-293
T1 sequence (Q9H2X9 1-1116 isoform Q9H2X9-2 S940A): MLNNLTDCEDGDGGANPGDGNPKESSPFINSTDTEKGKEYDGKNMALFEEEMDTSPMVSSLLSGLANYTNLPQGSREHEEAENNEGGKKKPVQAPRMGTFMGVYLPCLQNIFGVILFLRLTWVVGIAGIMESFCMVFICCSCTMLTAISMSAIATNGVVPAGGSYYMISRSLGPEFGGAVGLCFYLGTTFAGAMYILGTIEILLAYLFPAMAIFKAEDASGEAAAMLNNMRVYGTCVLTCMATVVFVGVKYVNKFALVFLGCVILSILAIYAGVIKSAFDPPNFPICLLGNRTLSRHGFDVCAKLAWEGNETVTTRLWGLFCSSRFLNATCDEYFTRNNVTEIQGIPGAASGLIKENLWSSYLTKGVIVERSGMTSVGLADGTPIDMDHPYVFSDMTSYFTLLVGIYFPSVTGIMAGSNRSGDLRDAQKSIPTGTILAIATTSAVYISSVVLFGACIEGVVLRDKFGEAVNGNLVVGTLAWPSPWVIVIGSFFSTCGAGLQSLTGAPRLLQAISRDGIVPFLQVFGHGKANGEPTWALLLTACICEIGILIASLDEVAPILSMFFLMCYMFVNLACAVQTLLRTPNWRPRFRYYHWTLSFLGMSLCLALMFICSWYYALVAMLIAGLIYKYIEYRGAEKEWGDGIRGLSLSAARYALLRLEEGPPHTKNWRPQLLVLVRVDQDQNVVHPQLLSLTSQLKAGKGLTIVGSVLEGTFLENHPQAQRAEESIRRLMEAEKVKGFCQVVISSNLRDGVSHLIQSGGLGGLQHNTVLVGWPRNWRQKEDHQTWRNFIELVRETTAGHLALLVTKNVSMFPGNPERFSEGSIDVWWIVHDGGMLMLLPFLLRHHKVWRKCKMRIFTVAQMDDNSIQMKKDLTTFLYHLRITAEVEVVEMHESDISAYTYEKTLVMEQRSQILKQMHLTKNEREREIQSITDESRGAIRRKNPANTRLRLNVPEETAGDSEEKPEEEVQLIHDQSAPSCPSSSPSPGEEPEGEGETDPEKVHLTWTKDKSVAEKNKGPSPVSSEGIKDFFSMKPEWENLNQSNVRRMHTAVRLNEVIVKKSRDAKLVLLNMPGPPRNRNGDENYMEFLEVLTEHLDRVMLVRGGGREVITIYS
Protocol: FLIPR TI Flux assay. HEK-293 cells were washed with HBSS, and then incubated with loading buffer containing TI sensitive fluorescent dye (https://www.moleculardevices.com), 20 μM bumetanide 20 μM ouabain and 2.5 mM probenecid for 1 h at room temperature (RT) under control conditions or with drugs in the dark using a FlexStation 3 microplate reader (Molecular Devices) and imaged […] for 30 min. Stimulus buffer was added containing 5 mM K^+/0.5 mM Tl^+ and cells were imaged every 1.5 over a 190 second time course The initial rate Tl^+ uptake (Relative Fluorescence Units (RFU) per second) was determined following addition of the stimulus buffer as outlined previously (Conway et al., 2017, supra) (Lee et al., 2022, supra).
Several studies have shown that the activity and plasma membrane accumulation of KCC2 is potentiated via phosphorylation of S940, a process mediated by the activity of protein kinase C and protein phosphatase 1 (Lee et al., 2011, supra; Lee et al., J Biol Chem 282, 29777-29784 (2007); Moore et al., Proc. Natl. Acad. Sci. U.S.A. 115, 10166-10171 (2018); Moore et al., Trends Neurosci. 40, 555-571 (2017); Silayeva et al., Proc. Natl. Acad. Sci. U.S.A. 112, 3523-3528 (2015)). […] Compared to KCC2, effects on KCC3, KCC4, and NKCC1 were only seen at concentrations more than 35-fold that of KCC2 (>100 μM) (FIG. 1G).

[1] = PK study, brain and plasma levels by LC-MS/MS; assay type: in vivo, mice
Protocol: PK studies. […] Plasma and brain samples were rapidly frozen on dry ice.
Drug accumulation in the brain was examined following SC injection (FIG. 4C; 50 mg/kg).

[2] = tested on: panel of 144 protein kinases; assay: SelectScreen protein kinase panel; assay type: biochemical; conditions: 144 protein kinases incl. PKC isoforms, OSR1, SPAK, WNK
Protocol: Aliquots of HEK-293 cells expressing KCC2 were exposed to 30 μM SSA, heated from 37-55° C. The remaining level of soluble native KCC2 at each temperature was measured by immunoblotting and normalized to the level seen at 37° C. which was given a value of 1. […] This panel included protein kinase C isoforms, OSR1, SPAK (STK39) and with-no-lysine kinases (WNK), all of which phosphorylate KCC2 on multiple residues to indirectly modify its activity (Kahle et al., 2013, supra; Smalley et al., 2020, supra).

mice [3] = assay: KA induced SE, EEG, injection directly into the hippocampus; assay type: in vivo; conditions: intrahippocampal pretreatment, DZ 2 h after KA
Protocol: 30 or 60 min later mice were injected with KA (20 mg/kg) and 2 h later with DZ as detailed above.

mice [4] = conditions: in vivo
mice [5] = assay: Kainic acid (KA) induced SE, EEG recording, pretreatment; assay type: in vivo; conditions: 50 mg/kg SC pretreatment; vehicle 4.2±2.4×10^−6
Description: This model was chosen due to the similarities with patients undergoing SE, as KA-induced seizures become refractory to benzodiazepines (BDZs) within minutes (Betjemann and Lowenstein, Lancet Neurol 14, 615-624 (2015); Crawshaw and Cock, (2020a) [Seizure: Eur. J. Epilep. 75 (2020) 145-152] Seizure 80, 282; Lee et al., 2022, supra; Reddy and Kuruba, Int J Mol Sci 14, 18284-18318 (2013)).
EEG recordings and analysis. WT C57Bl/6J adult male mice (12 weeks) were anesthetized with isofluorane and implanted with EEG/EMG electrodes and allowed to recover for 7 days prior to experimentation. […] 2 h following KA administration mice were injected with a saturating concentration of diazepam (DZ) 10 mg/kg (IP) and recordings were extended for a further 60 min. […] LabChart 8 software was used for data analysis. […]
To provide quantitative insights on the effects of KA, raw EEG recordings were subject to Fast-Fourier transformation (8K FFT size, Hann (cosine-bell), 87.50% window overlap) for frequencies between 0-100 Hz 2 h after KA injection (Lee et al., 2022, supra).

mice [6] = assay: TUNEL staining of hippocampal CA1 48 h after KA injection; assay type: in vivo
Protocol: To determine if KCC2 activators have an impact on the extent of neuronal injury, brain sections from mice that survived for 48 h after KA injection were subjected to Terminal deoxynucleotidyl transferase dUTP nick end (TUNEL) staining to visualize dead cells, and counterstained with DAPI. The number of TUNEL positive cells in the CA1 region of the hippocampus were then compared between treatment groups.

mice [7] = assay: KA induced ongoing SE, EEG, treatment 2 h after KA; assay type: in vivo; conditions: given IP 2 h after KA
Protocol: EEG recordings and analysis. WT C57Bl/6J adult male mice (12 weeks) were anesthetized with isofluorane and implanted with EEG/EMG electrodes and allowed to recover for 7 days prior to experimentation. […] 2 h following KA administration mice were injected with a saturating concentration of diazepam (DZ) 10 mg/kg (IP) and recordings were extended for a further 60 min. […] LabChart 8 software was used for data analysis. Epileptiform activity was identified by changes in the amplitude of electrographic activity characterized by consistent changes in the power of the Fast Fourier transform (FFT) of the EEG and abnormal activity characterized by periods of rhythmic spiking lasting longer than 30 s (Moore et al., 2017, supra; Silayeva et al., 2015, supra; Sivakumaran et al., J. Neurosci. 35, 8291-8296 (2015)).
To evaluate the potential of KCC2 activators to terminate ongoing SE, the KA model described above was employed. Mice were injected with KA (20 mg/Kg; IP). […] Spectral data were then subjected to FFT and the total EEG power between 1-100 Hz of the 2 h following KA treatment (pre-drug) and 30 min following their injection (post-drug) were compared (FIG. 6B). In mice treated with DZ alone variable effects were observed, from large increases to modest reductions in EEG power, but these effects were not significant (FIG. 6C; pre=1.1±0.2×10^−6, post=4.4±7.4×10^−7 V^2, p=0.214, n=13-14 mice). […]

SMILES | activity of KCC2-S940A construct (KCC2-S940A) | brain level 8 h later ([1]; 50 mg/kg SC) | time of maximal concentration in the brain ([1]; 50 mg/kg SC) | concentration at 30 min ([1]; mouse, in vivo, 25 mg/kg IV bolus, read-out: accumulation in brain and plasma, third value not assigned) | activity of the kinase panel [2] | effect of DZ on seizure parameters in pretreated mice (mice [3]) | effects on mouse behavior in the open field (mice [4]) | total EEG power 2 h after KA (pre DZ) (mice [5]) | TUNEL positive CA1 cells (mice [6]) | mean time to suppression (EEG power reduced to 50%) (mice [7])
C[C@@H]1CN(c2nc3c(c(Nc4ccc(C5CCCCC5)cc4)n2)COC3)CCO1 [Compound A, (R)—N-(4-cyclohexylphenyl)-2-(2-methylmorpholino)-5,7-dihydrofuro[3,4-d]pyrimidin-4-amine] | increased the activity of KCC2-S940A construct | maintained | 4 h | 11.2 µM | did not modify the activity | DZ significantly reduced seizure parameters | no gross effects on mouse behavior | 6.9±3.2×10^−7 V^2 |  | 
CN1C(=O)CN=C(c2ccccc2)c2cc(Cl)ccc21 [DZ, diazepam] |  |  |  |  |  |  |  |  | 40.93±3.35 dead cells/ROI | 32.5 ± 6.7 min

Reference: patent US20260048063A1, “FUSED AMINO PYRIMIDINE COMPOUNDS FOR TREATMENT OF NEURODEGENERATIVE DISORDERS” (Ovid Therapeutics Inc., priority 2024, published 2026)
